According to US20260234188A1, “CHEMOKINE-BINDING PEPTIDES” (Oxford University Innovation Limited, priority 2022, published 2026):
Ends that are not written are not given here. Peptide text beside a SMILES is read from it.

What was measured:
Assay type in all cases: cell-based
Conditions in all cases: HD2 mutant peptides 10 μM, chemokine at EC80
CXCL11 = target: T1, CXCL11 (Homo sapiens, UniProt O14625); experiment: CXCL11-induced activated T-cell migration, transwell assay
T1 construct: purchased Peprotech
T1 sequence (O14625 22-94): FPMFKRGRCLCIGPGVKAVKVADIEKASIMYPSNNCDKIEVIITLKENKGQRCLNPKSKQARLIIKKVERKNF
Protocol: FIG. 2. […] BK1.2 is described in (Darlot, 2020). […] Chemokines used are indicated by the name, followed in parenthesis by the supplier code (P in supplier code indicates Peprotech). […] All experiments were performed at EC80 doses of indicated chemokine. Data are shown as box-whisker plots of three technical and three biological replicates. Statistically significant differences (compared to control, indicated by #), using Dunnett's test with correction for multiple comparisons, are indicated by asterisks: ****=P≤0.0001, ***=P≤0.001, **=P≤0.01, *=P≤0.05.
Briefly, cell migration assays use THP1 cells (human monocyte) and primary human buffy coat white cells (consisting of neutrophil granulocytes, monocytes, and lymphocytes), and activated T-cells. THP1 cells and primary monocytes respond to CCL2, CCL3, CCL5, CCL8 and CXCL4, granulocytes to CXCL1 and CXCL8, activated T-cells to CXCL9/10/11. Assays are performed in 96-well Boyden chambers, and migrated cells counted and characterized using and ATTUNE Flow Cytometer as described. Triplicate assays are performed at the EC80 dose of each chemokine at 10 μM peptide concentration.
(§1) The J:CXCR1 cell line was generated by transfecting Jurkat cells by electroporation with PvuI-linearized plasmid D1398 and selecting with blasticidin (Sigma-Aldrich, Cat #203350, […]). […] J:CXCR1 cells were cultured in RPMI-1640 media (Gibco), supplemented with 10% FBS and 5 mM L-Glutamine with blasticidin. For J:CXCR1 migration assays, 300,000 cells/well were added to the top chamber of a 3 μm Transwell insert (Corning) in 50 μL of migration media (RPMI-1640, 0.5% FBS, 4 mM L-Glutamine, 0.05% DMSO). The bottom chamber contained 150 μL of chemokine, with or without peptide. Cells were migrated at 37° C. in 5% CO2 for 4 hours. The plate was incubated on a shaking platform for 10 minutes, 800 rpm, at 37° C., and 150 μL from the bottom of the plate transferred into a U-bottom plate containing 50 μL of migration media. Cell counts were determined by Attune NxT Flow Cytometer Plate Reader (ThermoFisher), based on cell size parameters FSC-H/SSC-H. Experiments were performed in 3 technical and 3 biological replicates. THP-1 migration assays were carried out using methods known in the art. Activated T-cell assays were carried out using methods known in the art, with the following modifications in the isolation process. Peripheral blood cells were obtained from leucocyte cones (NHS Blood Transfusion Services), following which, T-cells were isolated using two rounds of human CD8+ T-cell isolation kit (480011, BioLegend). At day 10 after activation, T-cells were frozen at 20 E6 cells/ml in TexMACS medium supplemented with 10% DMSO (D2650, Sigma) in liquid nitrogen. Prior to use, activated T-cells were recovered for 24 hours in TexMACs medium at 0.3 E6 cells/ml and incubated at 37° C. in 5% CO2. Chemokine sources are described in Supplementary information Table 3. Statistical significances between control experimental groups was evaluated using Dunnett's test. IC50 experiments were performed at the EC80 dose of chemokine. EC80 was calculated by fitting a chemokine dose-response curve with 3 parameters (fixing the top to 100%). IC50 was calculated by fitting an inhibitor response curve with 4 parameters.

CCL21 = target: T2, CCL21 (Homo sapiens, UniProt O00585); experiment: CCL21-induced cell migration assay
T2 sequence (O00585 24-134): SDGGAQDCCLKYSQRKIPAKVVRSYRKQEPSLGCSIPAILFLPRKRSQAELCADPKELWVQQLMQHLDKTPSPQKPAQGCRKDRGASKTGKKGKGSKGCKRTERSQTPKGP
Protocol: (§2) FIGS. 24 and 25. Effect of exemplar mutant HD2 peptides on chemotaxis. Box-whisker plots showing the effect of the exemplar mutant HD2 peptides on cell migration induced by indicated human chemokines. All experiments were performed as at least three technical and between one to three biological replicates, and individual data points are indicated. […] Chemokine and cell type names are indicated. HD2SCR is a scrambled version of HD2 used as negative control. All peptides were at 10 μM final concentration and chemokines at EC80 doses. Statistically significant differences (compared to control, coloured blue), using Dunnett's test with correction for multiple comparisons, are indicated by asterisks: ****=P≤0.0001, ***=P≤0.001, **=P≤0.01, *=P≤0.05.
as §1
Migration assays using THP1, activated T-cell (ATC) and J:CXCR1 (Jurkat cells stably transfected with CXCR1 receptor) were performed as described previously. IC50 experiments were performed at the EC80 dose of chemokine. EC80 was calculated by fitting a chemokine dose-response curve with 3 parameters (fixing the top to 100%). IC50 was calculated by fitting an inhibitor response curve with 4 parameters. R-packages used were ggupset_0.3.0, DescTools_0.99.44, and drc_3.0-1.

CCL14 = target: T3, CCL14 (Homo sapiens, UniProt Q16627); experiment: CCL14-induced cell migration assay
T3 sequence (Q16627 20-93): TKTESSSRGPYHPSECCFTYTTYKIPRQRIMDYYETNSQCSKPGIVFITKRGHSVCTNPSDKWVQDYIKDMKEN
Protocol: as §2, with “Statistically significant differences (compared to control, coloured blue), using Dunnett's test with correction for multiple comparisons, are indicated by asterisks: ****=P≤0.0001, ***=P≤0.001, **=P≤0.01, *=P≤0.05.” left out
The J:CXCR1 cell line was generated by transfecting Jurkat cells by electroporation with PvuI-linearized plasmid D1398 and selecting with blasticidin (Sigma-Aldrich, Cat #203350, 5 g/mL). […] Cell counts were determined by Attune NxT Flow Cytometer Plate Reader (ThermoFisher), based on cell size parameters FSC-H/SSC-H. Experiments were performed in 3 technical and 3 biological replicates. […] Statistical significances between control experimental groups was evaluated using Dunnett's test. […] EC80 was calculated by fitting a chemokine dose-response curve with 3 parameters (fixing the top to 100%). IC50 was calculated by fitting an inhibitor response curve with 4 parameters. […]

Compound | chemotaxis compared with the parental HD2 peptide (CXCL11) | chemotaxis compared with the parental HD2 peptide (CCL21) | chemotaxis compared with the parental HD2 peptide (CCL14)
EEDDYWAYAPLTCYFT [HD2_W6] | significant reduction in chemotaxis | significant reduction in chemotaxis | –
EEDDYTAYWPLTCYFT [A9W] | significant reduction in chemotaxis | significant reduction in chemotaxis | –
EEDDWTAYAPLTCYFT-NH2 [HD2_W5, EEDDWTAYAPLTCYFT] | significant reduction in chemotaxis | significant reduction in chemotaxis | –
CC(C)C[C@H](NC(=O)[C@@H]1CCCN1C(=O)[C@H](C)NC(=O)[C@H](Cc1ccc(O)cc1)NC(=O)[C@H](C)NC(=O)[C@@H](NC(=O)[C@H](Cc1ccc(O)cc1)NC(=O)[C@H](CC(=O)O)NC(=O)[C@H](CC(=O)O)NC(=O)[C@H](CCC(=O)O)NC(=O)[C@@H](N)CCC(=O)O)[C@@H](C)O)C(=O)N[C@H](C(=O)N[C@@H](CS)C(=O)N[C@@H](Cc1ccc(O)cc1)C(=O)N[C@@H](Cc1ccccc1)C(=O)N[C@@H](CS)C(N)=O)[C@@H](C)O [HD2_C16, EEDDYTAYAPLTCYFC] (H-EEDDYTAYAPLTCYFC-NH2; N-terminus assumed) | significant reduction in chemotaxis | significant reduction in chemotaxis | significant reduction in chemotaxis
